Data set [1] can be described thus: Compound induced cellular toxicity in HepG2 cells, ATPlite 1Step. The following applies: human, three days exposure, 50% reduction of total ATP vs no drug controls. Format: cell-based. How it is done:
At day 3, post seeding cells are treated with ATPlite 1Step according to the manufacturer's instructions.
A general note: In ATP-based viability assays light output follows the ATP content of the culture.

In data set [2] the test system is HBV in 2.2.15 cells. Put plainly: 2.2.15 cells: viral product in cell lysates quantified via quantitative real time PCR. Particulars: Hepatitis B virus, 120 h, day 5 post treatment, 50% reduction of viral product vs no drug controls, readout (qPCR, HBsAg or HBeAg) not specified for the column. Format: cell-based, hepatitis B virus (HBV). As for the experimental part:
2.2.15 cells are passaged upon attaining confluency in DMEM/F12 media in the presence of 10% FBS, Penn/Strep, and 250 ug/mL G418. Novel compounds are 5 fold serially diluted in DMSO and added to 96 well plates containing 35,000 cells/well at a 1:200 dilution so that the final concentration of DMSO is 0.5%. On day 5, post treatment cell lysates and supernatants are harvested for analysis.
Cells are lysed using Agilent Sidestep Lysis buffer, diluted 1:100 and quantified via quantitative real time PCR. Commercially available ELISA kits are used to quantitate the viral proteins HBsAg (Alpco) or HBeAg (US Biological) by following the manufacturer's recommended protocol after diluting samples to match the linear range of their respective assays. Irrespective of readout, compound concentrations that reduce viral product accumulation in the cell lysates or supernatants by 50% relative to no drug controls (EC50) are reported; EC50 ranges are as follows: A<0.1 μM; B 0.2-1 μM; C>1 μM.
A general note: Quantitative PCR measures a nucleic acid by following its amplification.

As a reminder, the CC50 is the concentration giving 50% cytotoxicity. Read a low CC50 as harm at low concentration. As usually defined, the EC50 is the concentration that produces a half-maximal response. Read a low EC50 as an effect from little substance. On to `CC(C)(C)[C@@H]1Cn2nc(-c3cc(F)c(F)cc3N)cc2-c2cc(=O)c(C(=O)O)cn21` [Example 64, (R)-2-(2-amino-4,5-difluorophenyl)-6-(tert-butyl)-10-oxo-5,6-dihydro-10H-pyrazolo[1,5-a]pyrido[2,2-c]pyrazine-12-carboxylic acid], for which, in data set [1], the CC50 at 3 days was above 25 µM. The compound also displayed an EC50 in data set [2] below 0.1 µM.

Turning to `COc1cc(-c2cc3n(n2)C[C@@H](C(C)(C)C)n2cc(C(=O)O)c(=O)cc2-3)c(OC)nn1` [Example 16, (R)-6-(tert-butyl)-2-(3,6-dimethoxypyridazin-4-yl)-10-oxo-5,6-dihydro-10H-pyrazolo[1,5-a]pyrido[2,2-c]pyrazine-12-carboxylic acid], the CC50 at 3 days in data set [1] is above 25 µM. In data set [2], this compound returned an EC50 below 0.1 µM.

For `O=C(O)c1cn2c(cc1=O)-c1c(-c3ccccc3)c(-c3ccccc3)nn1CC2` [Example 199, 10-oxo-1,2-diphenyl-5,6-dihydro-10H-pyrazolo[1,5-a]pyrido[2,1-c]pyrazine-9-carboxylic acid], in data set [1], the CC50 at 3 days is above 25 µM. The compound further came in with an EC50 in data set [2] below 0.1 µM.

In data set [1], `CC(C)(C)[C@@H]1Cn2nc(-c3ccccc3F)cc2-c2cc(=O)c(C(=O)O)cn21` [Example 3, (R)-6-(tert-butyl)-2-(2-fluorophenyl)-10-oxo-5,6-dihydro-10H-pyrazolo[1,5-a]pyrido[2,2-c]pyrazine-12-carboxylic acid] returned a CC50 at 3 days above 25 µM. The same compound displayed an EC50 in data set [2] below 0.1 µM.

`CC(C)(C)[C@@H]1Cn2nc(-c3ccc(F)c4c3OCO4)cc2-c2cc(=O)c(C(=O)O)cn21` [Example 22, (R)-6-(tert-butyl)-2-(7-fluorobenzo[d][1,3]dioxol-4-yl)-10-oxo-5,6-dihydro-10H-pyrazolo[1,5-a]pyrido[2,2-c]pyrazine-12-carboxylic acid] yielded a CC50 at 3 days in data set [1] above 25 µM. This compound showed an EC50 in data set [2] below 0.1 µM.

`Cc1ccc(-c2cc3n(n2)C[C@@H](C(C)(C)C)n2cc(C(=O)O)c(=O)cc2-3)cc1` [Example 20, (R)-6-(tert-butyl)-10-oxo-2-(p-tolyl)-5,6-dihydro-10H-pyrazolo[1,5-a]pyrido[2,2-c]pyrazine-12-carboxylic acid]: in data set [1], the CC50 at 3 days was above 25 µM. This compound also had an EC50 in data set [2] below 0.1 µM.

On to `CC(C)(C)[C@@H]1Cn2ncc(-c3c(F)ccc4c3OCO4)c2-c2cc(=O)c(C(=O)O)cn21` [Example 123, (R)-6-(tert-butyl)-1-(5-fluorobenzo[d][1,3]dioxol-4-yl)-10-oxo-5,6-dihydro-10H-pyrazolo[1,5-a]pyrido[2,1-c]pyrazine-9-carboxylic acid], for which the CC50 at 3 days in data set [1] is above 25 µM. Besides, the EC50 in data set [2] was below 0.1 µM.

For `CC(C)[C@@H]1Cn2nc(C3CC3)c(-c3cccc(O)c3)c2-c2cc(=O)c(C(=O)O)cn21` [Example 142, (R)-2-cyclopropyl-1-(3-hydroxyphenyl)-6-isopropyl-10-oxo-5,6-dihydro-10H-pyrazolo[1,5-a]pyrido[2,1-c]pyrazine-9-carboxylic acid], the CC50 at 3 days in data set [1] was above 25 µM. Further, the EC50 in data set [2] is below 0.1 µM.

The compound `CC(C)(C)[C@@H]1Cn2nc(-c3ccc(F)cc3)c(F)c2-c2cc(=O)c(C(=O)O)cn21` [Example 93, (R)-6-(tert-butyl)-1-fluoro-2-(4-fluorophenyl)-10-oxo-5,6-dihydro-10H-pyrazolo[1,5-a]pyrido[2,1-c]pyrazine-9-carboxylic acid] came in with a CC50 at 3 days in data set [1] above 25 µM. This compound also returned an EC50 in data set [2] below 0.1 µM.

For `CC(C)[C@@H]1Cn2nc(C3CC3)c(-c3cccnc3)c2-c2cc(=O)c(C(=O)O)cn21` [Example 140, (R)-2-cyclopropyl-6-isopropyl-10-oxo-1-(pyridin-3-yl)-5,6-dihydro-10H-pyrazolo[1,5-a]pyrido[2,1-c]pyrazine-9-carboxylic acid], the CC50 at 3 days in data set [1] is above 25 µM. Besides, the EC50 in data set [2] is below 0.1 µM.

Turning to `CC(C)[C@@H]1Cn2nc(-c3ccc(F)cc3)c(-c3ccc(F)cc3)c2-c2cc(=O)c(C(=O)O)cn21` [Example 180, (R)-1,2-bis(4-fluorophenyl)-6-isopropyl-10-oxo-5,6-dihydro-10H-pyrazolo[1,5-a]pyrido[2,1-c]pyrazine-9-carboxylic acid], the CC50 at 3 days in data set [1] was in the range of 10 to 25 µM. In addition, the EC50 in data set [2] was below 0.1 µM.

In data set [1], `CC(C)(C)[C@@H]1Cn2nc(-c3c(F)cccc3C(N)=O)cc2-c2cc(=O)c(C(=O)O)cn21` [Example 53, (R)-6-(tert-butyl)-2-(2-carbamoyl-6-fluorophenyl)-10-oxo-5,6-dihydro-10H-pyrazolo[1,5-a]pyrido[2,2-c]pyrazine-12-carboxylic acid] showed a CC50 at 3 days above 25 µM. This compound also returned an EC50 in data set [2] of 0.2 to 1 µM.

In data set [1], `CC(C)(C)[C@@H]1Cn2nc(C3CC3)c(-c3ccccc3F)c2-c2cc(=O)c(-c3ncn[nH]3)cn21` [Example 198, (R)-6-(tert-butyl)-2-cyclopropyl-1-(2-fluorophenyl)-9-(1H-1,2,4-triazol-5-yl)-5,6-dihydro-10H-pyrazolo[1,5-a]pyrido[2,1-c]pyrazin-10-one] gave a CC50 at 3 days above 25 µM. Moreover, the EC50 in data set [2] is below 0.1 µM.

For the compound `CC(C)(C)[C@@H]1Cn2nc(-c3cccc(F)c3F)cc2-c2cc(=O)c(C(=O)O)cn21` [Example 30, (R)-6-(tert-butyl)-2-(2,3-difluorophenyl)-10-oxo-5,6-dihydro-10H-pyrazolo[1,5-a]pyrido[2,2-c]pyrazine-12-carboxylic acid], the half-maximal cytotoxic concentration (CC50) at 3 days in data set [1] is above 25 µM. The compound further came in with an EC50 in data set [2] below 0.1 µM.

Compound `C[C@@H]1Cn2nc(-c3ccccc3)c(-c3ccccc3)c2-c2cc(=O)c(C(=O)O)cn21` [Example 203, (R)-6-methyl-10-oxo-1,2-diphenyl-5,6-dihydro-10H-pyrazolo[1,5-a]pyrido[2,1-c]pyrazine-9-carboxylic acid] registered a CC50 at 3 days in data set [1] above 25 µM. Moreover, the EC50 in data set [2] is below 0.1 µM.

`CC(C)(C)[C@@H]1Cn2nc(-c3ccncc3F)cc2-c2cc(=O)c(C(=O)O)cn21` [Example 41, (R)-6-(tert-butyl)-2-(3-fluoropyridin-4-yl)-10-oxo-5,6-dihydro-10H-pyrazolo[1,5-a]pyrido[2,2-c]pyrazine-12-carboxylic acid] yielded a CC50 at 3 days in data set [1] above 25 µM. In addition, the EC50 in data set [2] is below 0.1 µM.

In data set [1], `CC(C)[C@@H]1Cn2nc(C3CC3)c(-c3ccco3)c2-c2cc(=O)c(C(=O)O)cn21` [Example 136, (R)-2-cyclopropyl-1-(furan-2-yl)-6-isopropyl-10-oxo-5,6-dihydro-10H-pyrazolo[1,5-a]pyrido[2,1-c]pyrazine-9-carboxylic acid] returned a CC50 at 3 days above 25 µM. For the same compound, in data set [2], the EC50 is below 0.1 µM.

`CC(C)(C)[C@@H]1Cn2nc(-c3ccccc3O)cc2-c2cc(=O)c(C(=O)O)cn21` [Example 46, (R)-6-(tert-butyl)-2-(2-hydroxyphenyl)-10-oxo-5,6-dihydro-10H-pyrazolo[1,5-a]pyrido[2,2-c]pyrazine-12-carboxylic acid] yielded a cytotoxic concentration (CC50) at 3 days in data set [1] above 25 µM. Moreover, in data set [2], the EC50 is below 0.1 µM.

As to `CC(C)(C)[C@@H]1Cn2nc(-c3cccc4nonc34)cc2-c2cc(=O)c(C(=O)O)cn21` [Example 58, (R)-2-(benzo[c][1,2,5]oxadiazol-4-yl)-6-(tert-butyl)-10-oxo-5,6-dihydro-10H-pyrazolo[1,5-a]pyrido[2,2-c]pyrazine-12-carboxylic acid], the CC50 at 3 days in data set [1] is above 25 µM. The compound also returned an EC50 in data set [2] below 0.1 µM.

In data set [1], `COc1cccc(F)c1-c1cc2n(n1)C[C@@H](C(C)(C)C)n1cc(C(=O)O)c(=O)cc1-2` [Example 50, (R)-6-(tert-butyl)-2-(2-fluoro-6-methoxyphenyl)-10-oxo-5,6-dihydro-10H-pyrazolo[1,5-a]pyrido[2,2-c]pyrazine-12-carboxylic acid] yielded a CC50 at 3 days above 25 µM. The compound further had an EC50 in data set [2] of 0.2 to 1 µM.

In data set [1], `CC(C)(C)[C@@H]1Cn2nc(C3CC3)c(-c3ccccc3O)c2-c2cc(=O)c(C(=O)O)cn21` [Example 165, (R)-6-(tert-butyl)-2-cyclopropyl-1-(2-hydroxyphenyl)-10-oxo-5,6-dihydro-10H-pyrazolo[1,5-a]pyrido[2,1-c]pyrazine-9-carboxylic acid] came in with a CC50 at 3 days above 25 µM. Besides, the EC50 in data set [2] was below 0.1 µM.

In data set [1], `CC(C)(C)[C@@H]1Cn2nc(C3CC3)c(-c3cccc4c3OC(F)(F)O4)c2-c2cc(=O)c(C(=O)O)cn21` [Example 150, (R)-6-(tert-butyl)-2-cyclopropyl-1-(2,2-difluorobenzo[d][1,3]dioxol-4-yl)-10-oxo-5,6-dihydro-10H-pyrazolo[1,5-a]pyrido[2,1-c]pyrazine-9-carboxylic acid] came in with a cytotoxic concentration (CC50) at 3 days above 25 µM. Moreover, the EC50 in data set [2] is below 0.1 µM.

`CC(C)[C@@H]1Cn2nc(C3CC3)c(-c3ccccc3)c2-c2cc(=O)c(C(=O)O)cn21` [Example 130, (R)-2-cyclopropyl-6-isopropyl-10-oxo-1-phenyl-5,6-dihydro-10H-pyrazolo[1,5-a]pyrido[2,1-c]pyrazine-9-carboxylic acid] yielded a CC50 at 3 days in data set [1] above 25 µM. In data set [2], this compound had an EC50 below 0.1 µM.

In data set [1], `CC(C)(C)[C@@H]1Cn2nc(-c3ccc(OC(F)(F)F)cc3)cc2-c2cc(=O)c(C(=O)O)cn21` [Example 25, (R)-6-(tert-butyl)-10-oxo-2-(4-(trifluoromethoxy)phenyl)-5,6-dihydro-10H-pyrazolo[1,5-a]pyrido[2,2-c]pyrazine-12-carboxylic acid] registered a half-maximal cytotoxic concentration (CC50) at 3 days above 25 µM. The same compound displayed an EC50 in data set [2] of 0.2 to 1 µM.
